# Assay results taken from patent US12540129B2, “KIF18A inhibitors” (AMGEN INC., priority 2019, dated 2026).
# Target: T1, Recombinant human KIF18A (1-467 His-tagged) protein (Homo sapiens, UniProt Q8NI77)
# T1 construct: Recombinant human KIF18A (1-467 His-tagged) protein; His; made in house
# Experiment: KIF18A Enzyme Assay: microtubule-stimulated ATPase activity (ADP-Glo)
# Format: biochemical
# Details: 30 nM KIF18A, 75 μM ATP
# Method in brief: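 ADP-Glo luminescence reports ADP produced by His-tagged human KIF18A motor domain (1-467, insect-cell expressed) with microtubules and ATP.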
# T1 sequence (Q8NI77 1-467): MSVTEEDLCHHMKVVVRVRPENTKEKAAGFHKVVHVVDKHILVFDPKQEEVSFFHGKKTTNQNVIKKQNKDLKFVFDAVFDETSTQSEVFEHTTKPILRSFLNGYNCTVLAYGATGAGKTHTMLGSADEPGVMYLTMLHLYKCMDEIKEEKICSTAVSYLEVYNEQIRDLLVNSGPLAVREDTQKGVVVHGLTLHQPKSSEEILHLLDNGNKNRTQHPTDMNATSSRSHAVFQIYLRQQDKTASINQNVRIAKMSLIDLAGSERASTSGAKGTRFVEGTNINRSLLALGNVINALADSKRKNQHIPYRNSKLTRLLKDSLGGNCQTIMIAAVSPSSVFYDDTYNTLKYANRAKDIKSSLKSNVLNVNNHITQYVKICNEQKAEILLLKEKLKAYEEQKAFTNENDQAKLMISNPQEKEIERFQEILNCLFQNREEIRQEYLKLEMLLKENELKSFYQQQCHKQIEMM
# T1 sequence (P02550 whole entry partner): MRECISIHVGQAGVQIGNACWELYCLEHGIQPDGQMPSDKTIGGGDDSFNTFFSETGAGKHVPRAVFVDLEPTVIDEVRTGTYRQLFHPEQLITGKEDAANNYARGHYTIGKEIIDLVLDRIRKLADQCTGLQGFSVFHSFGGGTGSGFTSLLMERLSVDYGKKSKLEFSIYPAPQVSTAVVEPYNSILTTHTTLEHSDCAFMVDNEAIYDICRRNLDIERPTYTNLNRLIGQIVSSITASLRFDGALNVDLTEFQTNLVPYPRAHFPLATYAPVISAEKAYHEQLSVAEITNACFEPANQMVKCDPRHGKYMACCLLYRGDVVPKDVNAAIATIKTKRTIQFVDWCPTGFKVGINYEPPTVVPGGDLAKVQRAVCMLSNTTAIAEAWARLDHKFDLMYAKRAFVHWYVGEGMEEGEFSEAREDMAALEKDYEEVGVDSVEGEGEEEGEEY
# T1 sequence (P02554 whole entry partner): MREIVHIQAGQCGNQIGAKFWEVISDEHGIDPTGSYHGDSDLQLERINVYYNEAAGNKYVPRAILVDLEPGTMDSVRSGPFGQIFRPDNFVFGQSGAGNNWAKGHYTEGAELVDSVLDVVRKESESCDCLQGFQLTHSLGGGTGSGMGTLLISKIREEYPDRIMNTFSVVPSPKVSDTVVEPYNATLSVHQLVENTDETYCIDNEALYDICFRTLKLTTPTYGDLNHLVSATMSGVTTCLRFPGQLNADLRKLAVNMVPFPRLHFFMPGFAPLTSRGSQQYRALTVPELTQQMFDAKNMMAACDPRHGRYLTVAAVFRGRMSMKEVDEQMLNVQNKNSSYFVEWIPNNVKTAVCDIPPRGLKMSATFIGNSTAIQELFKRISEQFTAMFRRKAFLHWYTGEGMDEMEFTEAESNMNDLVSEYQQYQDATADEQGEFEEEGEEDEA
row,IC50,Structure (SMILES)
1,1670 nM,"O=C(Nc1ccc(F)c(C(=O)N2CCCC(F)(F)C2)c1)c1ccncc1N1CCC2(CC1)CC2 [Example 115-3, N-(3-(3,3-difluoropiperidine-1-carbonyl)-4-fluorophenyl)-3-(6-azaspiro[2.5]octan-6-yl)isonicotinamide]"
2,90 nM,"CC(C)(C)Nc1ccc(C(=O)Nc2cccc(S(=O)(=O)C3CCCC3)c2)c(N2CCC3(CC2)CC3)n1 [Example 103-3, 6-(tert-butylamino)-N-(3-(cyclopentylsulfonyl)phenyl)-2-(6-azaspiro[2.5]octan-6-yl)nicotinamide]"
3,118 nM,"O=C(Nc1cccc(S(=O)(=O)C2CCCC2)c1)c1ccc(N2CC(O)C2)nc1N1CCC2(CC1)CC2 [Example 103-21, N-(3-(cyclopentylsulfonyl)phenyl)-6-(3-hydroxyazetidin-1-yl)-2-(6-azaspiro[2.5]octan-6-yl)nicotinamide]"
4,294 nM,"CC(C)(C)NS(=O)(=O)c1cccc(NC(=O)c2ccc(NC3CC(F)(F)C3)nc2N2CCC3(CC2)CC3)c1 [Example 102-17, N-(3-(N-(tert-butyl)sulfamoyl)phenyl)-6-((3,3-difluorocyclobutyl)amino)-2-(6-azaspiro[2.5]octan-6-yl)nicotinamide]"
5,47 nM,"CC(C)(CCO)Nc1ccc(C(=O)Nc2cccc(S(=O)(=O)C3CCCC3)c2)c(N2CCC3(CC2)CC3)n1 [Example 103-7, N-(3-(cyclopentylsulfonyl)phenyl)-6-((4-hydroxy-2-methylbutan-2-yl)amino)-2-(6-azaspiro[2.5]octan-6-yl)nicotinamide]"
6,71 nM,"CC(C)(C)NS(=O)(=O)c1cccc(NC(=O)c2ccc(NC3(CO)CCC3)nc2N2CCC3(CC2)CC3)c1 [Example 102-28, N-(3-(N-(tert-butyl)sulfamoyl)phenyl)-6-((1-(hydroxymethyl)cyclobutyl)amino)-2-(6-azaspiro[2.5]octan-6-yl)nicotinamide]"
7,934 nM,"CC(C)NS(=O)(=O)c1cccc(NC(=O)c2cccnc2N2CCC3(CC2)CC3)c1 [Example 100-11, N-(3-(N-isopropylsulfamoyl)phenyl)-2-(6-azaspiro[2.5]octan-6-yl)nicotinamide]"
8,189 nM,"CC1(NS(=O)(=O)c2cccc(NC(=O)c3cccnc3N3CCC4(CC3)CC4)c2)CCC1 [Example 101-3, N-(3-(N-(1-methylcyclobutyl)sulfamoyl)phenyl)-2-(6-azaspiro[2.5]octan-6-yl)nicotinamide]"
9,175 nM,"CC(C)(C)NS(=O)(=O)c1cccc(NC(=O)c2cccnc2N2CCC3(CC2)CC3)c1 [Example 100-12, N-(3-(N-(tert-butyl)sulfamoyl)phenyl)-2-(6-azaspiro[2.5]octan-6-yl)nicotinamide]"
10,135 nM,"Cc1cnc(-c2cccc(NC(=O)c3ccc(NC(C)(C)CO)nc3N3CCC4(CC3)CC4)c2)o1 [Example 111-6, 6-((1-hydroxy-2-methylpropan-2-yl)amino)-N-(3-(5-methyloxazol-2-yl)phenyl)-2-(6-azaspiro[2.5]octan-6-yl)nicotinamide]"
11,923 nM,"O=C(Nc1cccc(S(=O)(=O)C2CCC2)c1)c1cccnc1N1CCC2(CC1)CC2 [Example 100-24, N-(3-(cyclobutylsulfonyl)phenyl)-2-(6-azaspiro[2.5]octan-6-yl)nicotinamide]"
12,393 nM,"O=C(Nc1cccc(S(=O)(=O)Nc2ccc(F)cc2)c1)c1cccnc1N1CCC2(CC1)CC2 [Example 101-10, N-(3-(N-(4-fluorophenyl)sulfamoyl)phenyl)-2-(6-azaspiro[2.5]octan-6-yl)nicotinamide]"
13,42 nM,"O=C(Nc1cccc(S(=O)(=O)C2CCCC2)c1)c1ccc(NCC2(O)CC2)nc1N1CCC2(CC1)CC2 [Example 103-8, N-(3-(cyclopentylsulfonyl)phenyl)-6-(((1-hydroxycyclopropyl)methyl)amino)-2-(6-azaspiro[2.5]octan-6-yl)nicotinamide]"
14,39 nM,"O=C(Nc1cccc(S(=O)(=O)C2CCCC2)c1)c1ccc(NC2(CO)CC2)nc1N1CCC2(CC1)CC2 [Example 103-4, N-(3-(cyclopentylsulfonyl)phenyl)-6-((1-(hydroxymethyl)cyclopropyl)amino)-2-(6-azaspiro[2.5]octan-6-yl)nicotinamide]"
15,87 nM,"CC(C)(C)NS(=O)(=O)c1cccc(NC(=O)c2ccc([C@](C)(O)CO)nc2N2CCC3(CC2)CC3)c1 (single isomer, unassigned) [Example 109-1]"
16,70 nM,"CC(C)(C)NS(=O)(=O)c1cc(NC(=O)c2ccc(NC(C)(C)CO)nc2N2CCC3(CC2)CC3)ccc1Cl [Example 105-19, N-(3-(N-(tert-butyl)sulfamoyl)-4-chlorophenyl)-6-((1-hydroxy-2-methylpropan-2-yl)amino)-2-(6-azaspiro[2.5]octan-6-yl)nicotinamide]"
17,118 nM,"CC(C)(C)NS(=O)(=O)c1cccc(NC(=O)c2ccc(N3CCC3)nc2N2CCC3(CC2)CC3)c1 [Example 102-10, 6-(azetidin-1-yl)-N-(3-(N-(tert-butyl)sulfamoyl)phenyl)-2-(6-azaspiro[2.5]octan-6-yl)nicotinamide]"
18,76 nM,"C[C@@H](O)CNc1ccc(C(=O)Nc2cccc(S(=O)(=O)C3CCCC3)c2)c(N2CCC3(CC2)CC3)n1 [Example 103-11, (R)-N-(3-(cyclopentylsulfonyl)phenyl)-6-((2-hydroxypropyl)amino)-2-(6-azaspiro[2.5]octan-6-yl)nicotinamide]"
19,303 nM,"Cc1ccc(NC(=O)c2ccc(NC(C)(C)CO)nc2N2CCC3(CC2)CC3)cc1-c1ccccn1 [Example 111-10, 6-((1-hydroxy-2-methylpropan-2-yl)amino)-N-(4-methyl-3-(pyridin-2-yl)phenyl)-2-(6-azaspiro[2.5]octan-6-yl)nicotinamide]"
20,386 nM,"Cc1ccc(NC(=O)c2ccc(NC(C)(C)CO)nc2N2CCC3(CC2)CC3)cc1-c1ccncc1 [Example 111-12, 6-((1-hydroxy-2-methylpropan-2-yl)amino)-N-(4-methyl-3-(pyridin-4-yl)phenyl)-2-(6-azaspiro[2.5]octan-6-yl)nicotinamide]"
21,186 nM,"CC(C)(CO)Nc1ccc(C(=O)Nc2cccc(S(=O)(=O)C(F)(F)F)c2)c(N2CCC3(CC2)CC3)n1 [Example 105-5, 6-((1-hydroxy-2-methylpropan-2-yl)amino)-2-(6-azaspiro[2.5]octan-6-yl)-N-(3-((trifluoromethyl)sulfonyl)phenyl)nicotinamide]"
22,208 nM,"C[C@@H]1CN(c2cc(F)cc(NC(=O)c3ccc(NC(C)(C)CO)nc3N3CCC4(CC3)CC4)c2)CCO1 [Example 105-32, (R)-N-(3-fluoro-5-(2-methylmorpholino)phenyl)-6-((1-hydroxy-2-methylpropan-2-yl)amino)-2-(6-azaspiro[2.5]octan-6-yl)nicotinamide]"
23,591 nM,"COC1CN(c2ccc(C(=O)Nc3cccc(S(=O)(=O)NC(C)(C)C)c3)c(N3CCC4(CC3)CC4)n2)C1 [Example 102-12, N-(3-(N-(tert-butyl)sulfamoyl)phenyl)-6-(3-methoxyazetidin-1-yl)-2-(6-azaspiro[2.5]octan-6-yl)nicotinamide]"
24,561 nM,"CC(C)(C)NS(=O)(=O)c1cc(NC(=O)c2ccc(NC(C)(C)CO)nc2N2CCC3(CC2)CC3)cc(-c2cccnc2)c1 [Example 112-3, N-(3-(N-(tert-butyl)sulfamoyl)-5-(pyridin-3-yl)phenyl)-6-((1-hydroxy-2-methylpropan-2-yl)amino)-2-(6-azaspiro[2.5]octan-6-yl)nicotinamide]"
